According to US8394442B2, “Process for the preparation of a flavoring concentrate, and a flavoring concentrate” (SYMRISE AG, priority 2007, dated 2013):
Like-named read-outs stand apart in the source and are kept apart here.

Tests used:
[1] = log Pow* calculated by Formula 2 from log Pow and the polarity parameter P′(x) of the ethanol/water mixture
[2] = log Pow: distribution coefficient between 1-octanol and water; conditions: 1-octanol/water
From the text: Log Pow*=log Pow*−x*P′(x)/log Pow Formula 2: • where log Pow is the decimal logarithm of the distribution coefficient of a substance between 1-octanol and water, • x is the resulting solvent proportion based on the total volume proportion, normalized as 1.0, and • P′(x) is the polarity parameter for the corresponding solvent for the solvent proportion x.

[3] = solvent ethanol, proportion 10%
[4] = solvent ethanol, proportion 30%
[5] = solvent ethanol, proportion 40%
[6] = solvent ethanol, proportion 50%
[7] = solvent ethanol, proportion 60%
[8] = solvent ethanol, proportion 70%
[9] = solvent ethanol, proportion 80%
[10] = solvent ethanol, proportion 90%
[11] = solvent ethanol, proportion 100%

Compound	log Pow [2]	log Pow* (P′ 2%) ([1]; solvent ethanol, proportion 2%)	log Pow* (P′ 4%) ([1]; solvent ethanol, proportion 4%)	log Pow* (P′ 6%) ([1]; solvent ethanol, proportion 6%)	log Pow* (P′ 8%) ([1]; solvent ethanol, proportion 8%)	log Pow* (P′ 10%) [1, 3]	log Pow* (P′ 30%) [1, 4]	log Pow* (P′ 40%) [1, 5]	log Pow* (P′ 50%) [1, 6]	log Pow* (P′ 60%) [1, 7]	log Pow* (P′ 70%) [1, 8]	log Pow* (P′ 80%) [1, 9]	log Pow* (P′ 90%) [1, 10]	log Pow* (P′ 100%) [1, 11]	other results
OCc1ccco1 [Furfuryl alcohol]		−0.43	−1.10	−1.74	−2.35	−2.92	−7.46	−9.13	−10.52	−11.71	−12.73	−13.61	−14.39	−15.08	
c1ccc2[nH]ccc2c1 [Indole]	2.14	2.05	1.96	1.88	1.80	1.72	1.13	0.91	0.73	0.57	0.44	0.32	0.22	0.13	
CCCCOC(C)=O [Butylacetate]	1.77	1.66	1.55	1.45	1.35	1.26	0.55	0.28	0.06	−0.13	−0.29	−0.43	−0.55	−0.66	
CCC/C=C/CO [2E-hexenol]	1.75	1.64	1.53	1.43	1.33	1.24	0.51	0.24	0.02	−0.17	−0.33	−0.47	−0.60	−0.71	
O=Cc1ccccc1 [Benzaldehyde]		1.52	1.40	1.30	1.19	1.09	0.32	0.03	−0.20	−0.41	−0.58	−0.73	−0.86	−0.98	
CCOC(=O)C(C)CC (centres unmarked) [Ethylmethylbutyrate-2]	2.38	2.30	2.22	2.14	2.07	2.00	1.47	1.27	1.11	0.97	0.85	0.75	0.65	0.57	
CCCCCC=O [Hexanal]															log Pow* (P′ 4%) [1]: 1.77; log Pow* (P′ 6%) [1]: 1.68; log Pow* (P′ 8%) [1]: 1.60; log Pow* (P′ 10%) [1]: 1.51; log Pow* (P′ 30%) [1]: 0.87; log Pow* (P′ 40%) [1]: 0.63; log Pow* (P′ 50%) [1]: 0.43; log Pow* (P′ 60%) [1]: 0.27; log Pow* (P′ 70%) [1]: 0.12; log Pow* (P′ 80%) [1]: 0.00; log Pow* (P′ 90%) [1]: −0.12; log Pow* (P′ 100%) [1]: −0.21
O=Cc1ccco1 [Furfural]		0.46	0.20	−0.04	−0.28	−0.50	−2.24	−2.88	−3.41	−3.87	−4.26	−4.60	−4.90	−5.16	
SCc1ccco1 [Furfurylthiol-2]	1.90	1.80	1.70	1.60	1.51	1.43	0.76	0.51	0.31	0.13	−0.02	−0.15	−0.26	−0.36	
Oc1ccccc1 [Phenol]		1.35	1.22	1.10	0.98	0.87	0.02	−0.30	−0.56	−0.79	−0.98	−1.15	−1.30	−1.43	
CCCCCCOC(C)=O [Hexylacetate]															log Pow* (P′ 2%) [1]: 2.76; log Pow* (P′ 4%) [1]: 2.69; log Pow* (P′ 6%) [1]: 2.63; log Pow* (P′ 8%) [1]: 2.57; log Pow* (P′ 10%) [1]: 2.51; log Pow* (P′ 30%) [1]: 2.06; log Pow* (P′ 40%) [1]: 1.90; log Pow* (P′ 50%) [1]: 1.76; log Pow* (P′ 60%) [1]: 1.64; log Pow* (P′ 70%) [1]: 1.54; log Pow* (P′ 80%) [1]: 1.46; log Pow* (P′ 90%) [1]: 1.38; log Pow* (P′ 100%) [1]: 1.31
C=Cc1ccc(O)c(OC)c1															log Pow* (P′ 2%) [1]: 2.40; log Pow* (P′ 4%) [1]: 2.32; log Pow* (P′ 6%) [1]: 2.25; log Pow* (P′ 8%) [1]: 2.18; log Pow* (P′ 10%) [1]: 2.12; log Pow* (P′ 30%) [1]: 1.61; log Pow* (P′ 40%) [1]: 1.42; log Pow* (P′ 50%) [1]: 1.26; log Pow* (P′ 60%) [1]: 1.13; log Pow* (P′ 70%) [1]: 1.01; log Pow* (P′ 80%) [1]: 0.91; log Pow* (P′ 90%) [1]: 0.82; log Pow* (P′ 100%) [1]: 0.75

The next lines start with results.

log Pow [2]	Compound	log Pow* (P′ 2%) ([1]; solvent ethanol, proportion 2%)	log Pow* (P′ 4%) ([1]; solvent ethanol, proportion 4%)	log Pow* (P′ 6%) ([1]; solvent ethanol, proportion 6%)	log Pow* (P′ 8%) ([1]; solvent ethanol, proportion 8%)	log Pow* (P′ 10%) [1, 3]	log Pow* (P′ 30%) [1, 4]	log Pow* (P′ 40%) [1, 5]	log Pow* (P′ 50%) [1, 6]	log Pow* (P′ 60%) [1, 7]	log Pow* (P′ 70%) [1, 8]	log Pow* (P′ 80%) [1, 9]	log Pow* (P′ 90%) [1, 10]	log Pow* (P′ 100%) [1, 11]	other results
3.03	CCCCCCCC=O [Octanal]														log Pow* (P′ 2%) [1]: 2.96; log Pow* (P′ 4%) [1]: 2.90; log Pow* (P′ 6%) [1]: 2.84; log Pow* (P′ 8%) [1]: 2.79; log Pow* (P′ 10%) [1]: 2.73; log Pow* (P′ 30%) [1]: 2.31; log Pow* (P′ 40%) [1]: 2.16; log Pow* (P′ 50%) [1]: 2.03; log Pow* (P′ 60%) [1]: 1.92; log Pow* (P′ 70%) [1]: 1.83; log Pow* (P′ 80%) [1]: 1.75; log Pow* (P′ 90%) [1]: 1.67; log Pow* (P′ 100%) [1]: 1.61
2.38	CCCCCCC1CCC(=O)O1 (centres unmarked) [gamma-decalactone]	2.30	2.22	2.14	2.07	2.00	1.47	1.27	1.11	0.97	0.85	0.75	0.65	0.57	
2.09	Isopropylmethoxypyrazine	1.99	1.90	1.82	1.74	1.66	1.05	0.83	0.64	0.48	0.35	0.23	0.12	0.03	
2.42	CCCCCC1CCCC(=O)O1 (centres unmarked) [delta decalactone]	2.34	2.26	2.19	2.12	2.05	1.52	1.33	1.17	1.03	0.92	0.81	0.72	0.64	
2.30	CCCCCC(=O)OC [Methylcapronate]	2.21	2.13	2.05	1.98	1.91	1.36	1.15	0.98	0.84	0.72	0.61	0.51	0.43	
4.40	C/C=C/C(=O)C1=C(C)C=CCC1(C)C [beta-damascenone]	4.35	4.31	4.27	4.23	4.20	3.91	3.80	3.71	3.64	3.57	3.52	3.47	3.42	
3.86	CC(=O)/C=C/C1C(C)=CCCC1(C)C (stereo not drawn) [alpha-ionone]	3.81	3.76	3.71	3.67	3.63	3.30	3.18	3.08	2.99	2.92	2.85	2.80	2.75	
2.12	CC/C=C\CC1C(=O)CCC1CC(=O)OC (centres unmarked) [Methyl jasmonate]														log Pow* (P′ 2%) [1]: 2.03; log Pow* (P′ 4%) [1]: 1.94; log Pow* (P′ 6%) [1]: 1.85; log Pow* (P′ 8%) [1]: 1.77; log Pow* (P′ 10%) [1]: 1.70; log Pow* (P′ 30%) [1]: 1.10; log Pow* (P′ 40%) [1]: 0.88; log Pow* (P′ 50%) [1]: 0.69; log Pow* (P′ 60%) [1]: 0.54; log Pow* (P′ 70%) [1]: 0.40; log Pow* (P′ 80%) [1]: 0.29; log Pow* (P′ 90%) [1]: 0.18; log Pow* (P′ 100%) [1]: 0.09
